Source: US11246873B2, “Directed differentiation of oligodendrocyte precursor cells to a myelinating cell fate” (The Scripps Research Institute, priority 2011, dated 2022)
Entries after “also recorded” stand apart in the source; their conditions may differ.

Assays:
[1] = test system: PLP induced EAE mice
Method: (A-E) SJL mice were immunized with proteolipid peptide (PLP) and pertussis toxin and monitored daily with scoring on the standard clinical EAE scale (0-5). Compounds were administered daily for the duration of the study in saline at 10 mg/kg via intra-peritoneal injection (0.1 ml), starting on the day of the appearance of clinical EAE symptoms (day 10). […] Mean clinical EAE score and standard error of mean (SEM) are shown for each study group.
FIG. 25. […] EAE was induced in mice using PLP and pertussis toxin. […] Prophylactic dosing is defined as administration of compound commenced on the day of PLP injection. Error bars indicate standard deviation of the mean within each group of 8 mice.
(A-F) EAE was induced in mice using PLP and pertussis toxin. […] Error bars indicate standard deviation of the mean within each group of 8 mice.
(A-F) EAE was induced in mice by injecting PLP in complete Freund's adjuvant (CFA) and pertussis toxin, and the animals were scored daily for clinical severity of disease on a scale of 0-5. […] Error bars indicate standard deviation of the mean within each group of 8-10 mice.
10 week old SJL mice were immunized with PLP emulsion and pertusis toxin to induce EAE. […] Compounds were administered daily via intraperitoneal injection of 100 ul in sterile saline at 10 mg/kg alone or in combination with mycophenolate motefil in sterile saline at pH 5 at 20 mg/kg. Compound administration was initiated at disease onset (day 10) while mycophenolate motefil administration was initiated on Day 14. The mice were scored daily on a standard EAE scale of 0-5.
This model is most commonly used to evaluate the potential efficacy of immunomodulatory agents, but can also be used to determine the effectiveness of promyelinating agents that function by enhancing OPC differentiation (M. Fernandez et al., Proc Natl Acad Sci U.S.A, 101, 16363 (2004); X. Lee et al., J Neurosci, 27, 220 (2007); reviewed in R. J. Franklin, C. Ffrench-Constant, Nat Rev Neurosci, 9, 839 (2008)). […] We next evaluated efficacy when the drug is dosed therapeutically, by starting daily injections at the first sign of disease onset.
For the treatment of MS, an OPC differentiation inducing drug would most likely be introduced clinically as part of a combination therapy with an immunosuppressive drug. […] The former reduces T-cell proliferation and alters cytokine expression (A. Noronha, A. Toscas, M. A. Jensen, J Neuroimmunol, 46, 145 (1993); A. Noronha, A. Toscas, M. A. Jensen, Ann Neurol, 27, 207 (1990)), while the latter is an S1P agonist that regulates T-cell trafficking (V. Brinkmann et al., J Biol Chem, 277, 21453 (2002); V. Brinkmann et al., Nat Rev Drug Discov, 9, 883 (2010)).

[2] = test system: rat optic nerve derived OPCs; test: High content imaging assay of OPC differentiation (MBP immunostaining, OPERA); type: cell-based; conditions: OPCs in differentiation medium (2 ng/ml PDGF), 6 days
Method: FIG. 1A-C. […] The calculated EC50 values were determined using appropriate Graphpad Prism 5.0 curve fitting software. […] OPCs were plated in 384 well plates at 1000 cells per well in OPC media containing basal PDGF-αα (2 ng/mL) and treated with serial dilutions of compounds. Following six days of compound treatment, cells were fixed and subjected to immunofluorescence analysis using anti-myelin basic protein (MBP) antibody. Image acquisition and quantification of MBP staining was performed using the OPERA imaging system.
FIG. 11A-B. Screen to identify inducers of OPC differentiation. (A) OPCs were maintained as proliferating A2B5-positive cells under basal growth conditions (Neurobasal medium, B27 supplement without Vitamin A, non-essential amino acids, L-Glutamine, 30 ng/ml PDGF). OPCs were plated in basal differentiation media (Neurobasal medium, B27 supplement without Vitamin A, non-essential amino acids, L-Glutamine, 2 ng/ml PDGF), treated with DMSO (<0.1%) or thyroid hormone (1 uM), fixed after 6 days in culture, and stained using antibodies for CNP, O4, or MBP. […] (B) Screen strategy using A2B5 positive OPCs cultured under basal differentiation conditions and treated with compounds for 6 days to identify small molecules that induce the differentiation of OPCs to mature, MBP expressing oligodendrocytes.
FIG. 12A-B. Primary hit confirmation. (A) Dose response assay used to confirm primary screening hits and determine potency (EC50). (EC50) is defined as the concentration that results in a half maximal increase in the percentage of total cells that express MBP as detected by immunostaining. […] Cells were fixed and immunostained using antibodies for MBP. Error bars represent standard deviations from 3 replicate experiments. […]
FIG. 21. […] OPCs were plated in differentiation medium (2 ng/ml PDGF) and treated with various concentrations of compounds for 6 days. Cells were fixed and immunostained for MBP.
A large-scale small molecule screen was conducted to identify small molecules that promote the differentiation of oligodendrocyte precursor cells (OPCs) to a mature myelinating fate. High content imaging was used to detect in-well differentiation of rat optic nerve derived OPCs. Rat optic nerve derived OPCs were expanded en masse in OPC media containing 30 ng/mL PDGFαα. To screen for small molecule inducers of OPC differentiation, OPCs (cultured for fewer than 15 passages) were plated in poly-D-lysine coated 384 well culture plates in OPC Media containing 2 ng/mL PDGFαα and immediately treated with compounds at a final concentration of 6 μM (0.6% DMSO). Compound treated cells were incubated at 37° C., 5% CO2 for 6 days. At the end of 6 days, cells were fixed in 4% paraformaldehyde and subjected to immunofluorescence analysis. Anti-Myelin Basic Protein monoclonal antibody (a.a. 129-138, clone 1 monoclonal antibody, Millipore) (1:1000 dilution) in blocking buffere solution (3% BSA, 0.3% Triton X-100 in PBS) was added to fixed and washed cells and incubated at 4° C. overnight.

[3] = test system: OPCs; test: qRT-PCR of MBP and MOG expression in compound treated OPCs; type: cell-based, rat; conditions: EC90 concentrations, 6 days
Excerpt: FIG. 2A-C. […] (A) Western blot analysis of OPCs treated with compounds at EC90 concentrations for 6 days. Total protein was isolated from cell pellets and probed for myelin basic protein (MBP) and myelin oligodendrocyte glycoprotein (MOG) using specific antibodies. (B-C) Quantitative RT-PCR (qRT-PCR) analysis of OPCs treated with compounds at EC90 concentrations for 6 days. Total RNA was isolated from cell pellets and reverse transcribed. MBP and MOG expression was quantified using specific probes and Taqman-based qRT-PCR. Expression was normalized to the internal controls β-actin and GAPDH. Fold change in gene expression over DMSO treated control cells is plotted for MBP (B) and MOG (C).

[4] = test system: OPCs; test: Immunofluorescence analysis of mature oligodendrocyte markers (MBP, MOG, CNP, GalC, O1, O4); type: cell-based, rat; conditions: OPCs treated 6 days
Excerpt: FIG. 3. Immunofluorescence analysis of compound treated OPCs using mature oligodendrocyte specific markers. Immunofluorescence staining using specific antibodies for MBP, MOG, and 2′,3′-cyclic nucleotide 3′ phosphodiesterase (CNP). Nuclei were identified using DAPI.
FIG. 4. Immunofluorescence analysis of compound treated OPCs using mature oligodendrocyte specific markers. Immunofluorescence staining using specific antibodies for galactocereberoside (GalC), oligodendrocyte marker O1 (O1) and oligodendrocyte marker O4 (O4). Nuclei were identified using DAPI.
FIG. 14. Compound treatment induces the differentiation of OPCs to mature oligodendrocytes. […] Cells were fixed and immunostained for MBP, MOG, CNP, GalC, O1, or O4.
Immunofluorescence was also used to confirm that the hits were able to induce oligodendrocyte maturation.

[5] = test system: OPCs; test: Western blot of MBP and MOG in compound treated OPCs; type: cell-based, rat; conditions: OPCs treated 6 days
Excerpt: FIG. 2A-C. Neurotransmitter receptor modulating agents induce the differentiation of OPCs to a myelinating oligodendrocyte cell fate. (A) Western blot analysis of OPCs treated with compounds at EC90 concentrations for 6 days. Total protein was isolated from cell pellets and probed for myelin basic protein (MBP) and myelin oligodendrocyte glycoprotein (MOG) using specific antibodies. (B-C) Quantitative RT-PCR (qRT-PCR) analysis of OPCs treated with compounds at EC90 concentrations for 6 days. Total RNA was isolated from cell pellets and reverse transcribed. MBP and MOG expression was quantified using specific probes and Taqman-based qRT-PCR. Expression was normalized to the internal controls β-actin and GAPDH. Fold change in gene expression over DMSO treated control cells is plotted for MBP (B) and MOG (C).
FIG. 13. […] After 6 days in culture, cells were analyzed for MBP and MOG expression by Western blot.

[6] = test system: muscarinic receptor; test: Carbachol co-treatment in compound induced OPC differentiation (MBP staining); type: cell-based, rat; conditions: compounds at EC90 (benztropine 2.3 uM), serial dilutions of carbachol, 6 days
Method: Following 6 days of treatment, cells were fixed and stained for MBP. Plates were imaged using the OPERA high content screening system and MBP staining was quantified as described. […] OPCs were plated in 384-well plates at 5000 cells per well in media containing basal PDGF-αα. Cells were equilibrated with Ca^2+ sensitive Fluo-3AM® dye in HBSS for 30 min. […] Ca^2+ influx was immediately measured using the FLIPR TETRA® system.
OPCs express mAChRs, predominantly subtypes M1, M3, and M5 (F. Ragheb et al., J Neurochem, 77, 1396 (2001)). […] Activation of M1 and M3 mAChRs is coupled to downstream signal transduction events through phospholipase C, which results in increased intracellular calcium concentrations (F. Ragheb et al., J Neurochem, 77, 1396 (2001)) (FIG. 23C). M2 and M4 mAChR activation inhibits adenylatecyclase, leading to decreased intracellular cAMP levels (C. C. Felder, FASEB J, 9, 619 (1995); M. Lopez-Ilasaca et al., Science, 275, 394 (1997)). […] Acetylcholine is a known regulator of OPC proliferation and, as such, muscarinic receptor subtypes represent a reasonable class of therapeutic targets for the modulation of OPC proliferation and differentiation (F. De Angelis et al., Dev Neurobiol, (2011)).

CCCCCCCCc1ccc(CCC(N)(CO)CO)cc1 [FTY720, fingolimod]
maximal observed tolerated dose ([1]; EAE mice): ~1 mg/kg

CN1[C@@H]2CC[C@H]1C[C@@H](OC(=O)C(CO)c1ccccc1)C2 (stereo partly shown) [atropine]
induction of OPC differentiation (MBP staining) [2]: induce OPC differentiation; also recorded: induced OPC differentiation in a dose dependent manner; also recorded: induced differentiation of OPCs in a dose dependent manner

CN1CCC[C@@H]1CCO[C@](C)(c1ccccc1)c1ccc(Cl)cc1 [clemastine]
induction of OPC differentiation (MBP staining) [2]: promote OPC differentiation | induction of MBP expression (qRT-PCR) over DMSO [3]: two-fold | induction of MOG expression (qRT-PCR) over DMSO [3]: two-fold | markers of mature myelinating oligodendrocytes (MBP, MOG, CNP, GalC, O1, O4) by immunofluorescence [4]: confirmed the presence of multiple markers of mature myelinating oligodendrocytes | MBP and MOG expression (Western blot) [5]: positive | effect of carbachol on compound induced OPC differentiation [6]: inhibited; also recorded: dose dependent inhibition

CC(C)[N+]1(C)[C@@H]2CC[C@H]1C[C@@H](OC(=O)C(CO)c1ccccc1)C2 (stereo partly shown) [ipratropium]
induction of OPC differentiation (MBP staining) [2]: induce OPC differentiation; also recorded: induced OPC differentiation in a dose dependent manner; also recorded: induced differentiation of OPCs in a dose dependent manner

CCN(CC)CC#CCOC(=O)C(O)(c1ccccc1)C1CCCCC1 (stereo not shown) [oxybutynin]
induction of OPC differentiation (MBP staining) [2]: induced OPC differentiation in a dose dependent manner; also recorded: induced differentiation of OPCs in a dose dependent manner

CCCOC(C(=O)OC1CCN(C)CC1)(c1ccccc1)c1ccccc1 [propiverine]
induction of OPC differentiation (MBP staining) [2]: induced OPC differentiation in a dose dependent manner; also recorded: induced differentiation of OPCs in a dose dependent manner

CC(C)(C)NCC(O)c1ccc(O)c(CO)c1 (stereo not shown) [salbutamol]
clinical severity versus vehicle, dosing after disease onset (therapeutic mode) ([1]; compounds 10 mg/kg i.p. daily from first EAE symptoms, mycophenolate 20 mg/kg from day 14): significantly decreased clinical severity in the relapse phase

CN1[C@@H]2C[C@@H](OC(=O)[C@H](CO)c3ccccc3)C[C@H]1[C@@H]1O[C@@H]12 [scopolamine]
induction of OPC differentiation (MBP staining) [2]: induced OPC differentiation in a dose dependent manner; also recorded: induced differentiation of OPCs in a dose dependent manner

N[C@@H](Cc1cc(I)c(Oc2ccc(O)c(I)c2)c(I)c1)C(=O)O [thyroid hormone, triiodothryonine]
induction of OPC differentiation (MBP staining) [2]: induces the differentiation of OPCs into mature oligodendrocytes that express MBP | induction of OPC differentiation (MBP staining) ([2]; listed as T3): results in the differentiation of OPCs to MBP positive oligodendrocytes | markers of mature myelinating oligodendrocytes (MBP, MOG, CNP, GalC, O1, O4) by immunofluorescence [4]: expression of mature oligodendrocyte markers
